Results: ChEMBL document CHEMBL1914379, “Challenges of drug discovery in novel target space. The discovery and evaluation of PF-3893787: a novel histamine H4 receptor antagonist” (Bioorg Med Chem Lett, 2011)
Activity calls are given as the source filed them. The rule behind the calls is not given here.

Experiments:
[1] = Metabolic stability in rat liver microsomes; type: ADME, Microsome; conditions: read-out: Stability
Histamine H4 receptor [2] = target: T1, Histamine H4 receptor (Homo sapiens, UniProt Q9H3N8); experiment: Displacement of [3H]-histamine from full length human H4R expressed in HEK293 cells; type: cell-based
Rattus norvegicus [3] = experiment: Toxicity in rat assessed as bone marrow cytology changes at high dose, po for 7 days; type: organism-based; conditions: in vivo, 168 h
Histamine H4 receptor [4] = target: T1, Histamine H4 receptor; experiment: Antagonist activity at full length human H4R expressed in HEK293 cells assessed as reversal of forskolin-induced cAMP production by CRE-beta-lactamase reporter gene assay; type: functional, cell-based
Rattus norvegicus [5] = experiment: Toxicity in rat assessed as vacuolation at high dose, po for 7 days; type: organism-based; conditions: in vivo, 168 h
[6] = Metabolic stability in human liver microsomes; type: ADME, Microsome; conditions: read-out: Stability
Liver microsomes = experiment: Metabolic stability in human liver microsomes assessed as reactive metabolite generation; type: ADME, Microsome
Rattus norvegicus [7] = experiment: Toxicity in rat assessed as mortality at high dose, po for 7 days; type: organism-based; conditions: in vivo, 168 h
[8] = Oral bioavailability in rat at 5 mg/kg; type: ADME, organism-based; conditions: in vivo
[9] = Ratio of drug level in blood to plasma in rat at 1 mg/kg, iv and 5 mg/kg, po; type: ADME, organism-based
[10] = Ratio of drug level in blood to plasma in dog at 1 mg/kg, iv and 10 mg/kg, po; type: ADME, organism-based, Canis lupus familiaris
[11] = target: Histamine H4 receptor (Rattus norvegicus) (UniProt Q91ZY1); experiment: Partial agonist activity at rat H4R expressed in HEK293T cells assessed as reversal of forskolin-induced cAMP production by CRE-beta-lactamase reporter gene assay; type: functional, cell-based; conditions: HEK-293T
[12] = Plasma protein binding in rat at 1 mg/kg, iv and 5 mg/kg, po; type: ADME, organism-based; conditions: read-out: PPB (converted)
Histamine H4 receptor [13] = target: T2, Histamine H4 receptor (Mus musculus, UniProt Q91ZY2); experiment: Displacement of [3H]-histamine from mouse H4R expressed in HEK293T cells; type: cell-based, HEK-293T
T2 sequence (Q91ZY2 whole entry): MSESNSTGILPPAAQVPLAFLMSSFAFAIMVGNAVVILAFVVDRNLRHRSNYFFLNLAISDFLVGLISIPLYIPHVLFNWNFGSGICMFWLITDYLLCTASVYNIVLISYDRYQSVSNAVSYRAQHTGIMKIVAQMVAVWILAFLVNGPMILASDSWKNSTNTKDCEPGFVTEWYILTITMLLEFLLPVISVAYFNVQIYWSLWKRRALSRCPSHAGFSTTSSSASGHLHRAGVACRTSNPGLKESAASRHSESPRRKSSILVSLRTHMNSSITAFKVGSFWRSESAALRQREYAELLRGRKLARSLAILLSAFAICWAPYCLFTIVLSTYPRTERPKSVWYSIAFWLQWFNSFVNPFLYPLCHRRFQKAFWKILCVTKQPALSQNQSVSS

Histamine H4 receptor [14] = target: T1, Histamine H4 receptor; experiment: Antagonist activity at H4R in human eosinophils assessed as inhibition of histamine-induced actin polymerisation; type: functional
[15] = Blood clearance in dog at 1 mg/kg, iv and 10 mg/kg, po; type: ADME, organism-based, Canis lupus familiaris
[16] = Volume of distribution in dog blood at 1 mg/kg, iv and 10 mg/kg, po; type: ADME, organism-based, Canis lupus familiaris
[17] = Volume of distribution in rat blood at 1 mg/kg, iv and 5 mg/kg, po; type: ADME, organism-based
Histamine H4 receptor [18] = target: T3, Histamine H4 receptor (Cavia porcellus, UniProt Q91ZY3); experiment: Displacement of [3H]-histamine from guinea pig H4R expressed in HEK293T cells; type: cell-based, HEK-293T
T3 sequence (Q91ZY3 whole entry): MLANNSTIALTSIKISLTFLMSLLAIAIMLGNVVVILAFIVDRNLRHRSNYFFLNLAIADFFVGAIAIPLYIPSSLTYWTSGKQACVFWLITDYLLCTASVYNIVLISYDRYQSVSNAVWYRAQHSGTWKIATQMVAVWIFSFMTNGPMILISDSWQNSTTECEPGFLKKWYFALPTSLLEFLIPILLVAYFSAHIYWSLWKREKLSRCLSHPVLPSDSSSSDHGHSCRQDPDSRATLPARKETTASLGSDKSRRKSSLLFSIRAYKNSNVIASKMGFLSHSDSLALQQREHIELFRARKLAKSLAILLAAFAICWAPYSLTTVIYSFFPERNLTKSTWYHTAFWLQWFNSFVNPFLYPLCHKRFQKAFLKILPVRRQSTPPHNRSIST

[19] = Lipophilicity, log D of the compound; type: physicochemical; conditions: octanol/water
[20] = Displacement of [3H]-histamine from dog H4R expressed in HEK293T cells; type: cell-based, Canis lupus familiaris; conditions: hek-293t
[21] = Blood clearance in rat at 1 mg/kg, iv and 5 mg/kg, po; type: ADME, organism-based
Plasma = experiment: Plasma protein binding in dog at 1 mg/kg, iv and 10 mg/kg, po; type: ADME, organism-based, Canis lupus familiaris; conditions: in vivo
[22] = Half life in dog at 1 mg/kg, iv and 10 mg/kg, po; type: ADME, organism-based, Canis lupus familiaris; conditions: in vivo
Histamine H4 receptor [23] = target: T1, Histamine H4 receptor; experiment: Antagonist activity at H4R in human eosinophils assessed as inhibition of histamine-induced CD11b upregulation; type: functional
[24] = Oral bioavailability in dog at 10 mg/kg; type: ADME, organism-based, Canis lupus familiaris; conditions: in vivo
HEK-293T [25] = experiment: Antagonist activity at dog H4R expressed in HEK293T cells assessed as reversal of forskolin-induced cAMP production by CRE-beta-lactamase reporter gene assay; type: functional, cell-based; conditions: Canis lupus familiaris
HEK-293T [26] = experiment: Inverse agonist activity at macaque H4R expressed in HEK293T cells assessed as reversal of forskolin-induced cAMP production by CRE-beta-lactamase reporter gene assay; type: functional, cell-based; conditions: Macaca mulatta
Histamine H4 receptor [27] = target: T1, Histamine H4 receptor; experiment: Displacement of [3H]-histamine from human H4R expressed in HEK293T cells; type: cell-based, HEK-293T
Histamine H4 receptor [28] = target: Histamine H4 receptor (Rattus norvegicus, UniProt Q91ZY1); experiment: Displacement of [3H]-histamine from rat H4R expressed in HEK293T cells; type: cell-based, HEK-293T
[29] = Plasma protein binding in human; type: ADME, cell-free; conditions: read-out: PPB (converted)
[30] = Half life in rat at 1 mg/kg, iv and 5 mg/kg, po; type: ADME, organism-based; conditions: in vivo
[31] = Displacement of [3H]-histamine from macaque H4R expressed in HEK293T cells; type: cell-based, Macaca mulatta; conditions: hek-293t
[32] = Ratio of drug level in blood to plasma in human; type: ADME; conditions: blood and plasma

T1 sequence (Q9H3N8 whole entry): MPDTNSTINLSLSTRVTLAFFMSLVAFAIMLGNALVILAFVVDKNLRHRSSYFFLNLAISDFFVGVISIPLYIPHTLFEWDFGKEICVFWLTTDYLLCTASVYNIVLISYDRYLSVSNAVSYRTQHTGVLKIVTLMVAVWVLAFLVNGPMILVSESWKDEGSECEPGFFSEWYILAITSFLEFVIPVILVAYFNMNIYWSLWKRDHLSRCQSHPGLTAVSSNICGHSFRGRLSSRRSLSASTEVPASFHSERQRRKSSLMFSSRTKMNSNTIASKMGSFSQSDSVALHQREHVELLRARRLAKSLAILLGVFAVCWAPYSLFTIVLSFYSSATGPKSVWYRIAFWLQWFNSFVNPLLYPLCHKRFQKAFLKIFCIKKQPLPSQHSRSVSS
Sequence of Histamine H4 receptor (Rattus norvegicus) (Q91ZY1 whole entry): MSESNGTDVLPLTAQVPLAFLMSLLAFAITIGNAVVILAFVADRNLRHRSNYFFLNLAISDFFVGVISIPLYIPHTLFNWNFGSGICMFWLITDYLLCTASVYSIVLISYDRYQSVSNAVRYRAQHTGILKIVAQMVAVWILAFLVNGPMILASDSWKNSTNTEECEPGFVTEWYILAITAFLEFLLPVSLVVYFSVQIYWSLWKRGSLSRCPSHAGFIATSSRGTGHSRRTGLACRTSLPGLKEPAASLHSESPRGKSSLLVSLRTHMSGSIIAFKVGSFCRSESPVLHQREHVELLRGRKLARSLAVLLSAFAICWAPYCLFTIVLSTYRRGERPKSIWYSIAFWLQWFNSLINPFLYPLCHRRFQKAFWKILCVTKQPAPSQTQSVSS
Sequence of Histamine H4 receptor (Rattus norvegicus, UniProt Q91ZY1) (Q91ZY1 whole entry): as above

CNC1CN(c2cc(NCc3cccc(F)c3)nc(N)n2)C1
microsomal CLint [1]: < 8.5 µL/min/mg
Ki (Histamine H4 receptor [2]): 18 nM
Activity (Rattus norvegicus [3]): Toxic
Ki (Histamine H4 receptor [4]): 13 nM
Activity (Rattus norvegicus [5]): Toxic

CN1C[C@@H]2CN(C(=O)c3cc4cc(Cl)ccc4[nH]3)C[C@@H]2C1
microsomal CLint [1]: 36 µL/min/mg
microsomal CLint [6]: 7 µL/min/mg
Ki (Histamine H4 receptor [4]): 27 nM
Stability (Liver microsomes): Unstable

CN1CCN(c2cc(NCCC(C)(C)C)ncn2)CC1
Ki (Histamine H4 receptor [4]): 92 nM

CN1C[C@@H]2CN(C(=O)c3nc4cc(F)ccc4[nH]3)C[C@@H]2C1
microsomal CLint [1]: 40 µL/min/mg
Ki (Histamine H4 receptor [2]): 83 nM
microsomal CLint [6]: < 7 µL/min/mg
Ki (Histamine H4 receptor [4]): 39 nM
Stability (Liver microsomes): Stable

CNC1CN(c2cc(N)nc(NCC3CC3)n2)C1
microsomal CLint [1]: < 8.5 µL/min/mg
Activity (Rattus norvegicus [7]): Toxic
Ki (Histamine H4 receptor [2]): 9070 nM
Ki (Histamine H4 receptor [4]): > 2000 nM

CN[C@@H]1CCN(c2cc(NCC3CC3)nc(N)n2)C1 [ADRIFORANT]
microsomal CLint [1]: < 8.5 µL/min/mg
bioavailability [8]: 62%
blood plasma ratio [9]: 2
blood plasma ratio [10]: 1
Activity [11]: Active
fraction unbound [12]: 0.81
Ki (Histamine H4 receptor [13]): 20.9 nM
IC50 (Histamine H4 receptor [14]): 1.3 nM
clearance [15]: 7 mL/min/kg
Vd [16]: 14 L/kg
Ki (Histamine H4 receptor [2]): 2.4 nM
Vd [17]: 18 L/kg
Ki (Histamine H4 receptor [18]): 123 nM
microsomal CLint [6]: < 7 µL/min/mg
logD [19]: -0.1
pKi [20]: 5.79
clearance [21]: 29 mL/min/kg
PPB (Plasma): 0%
Ki (Histamine H4 receptor [4]): 1.56 nM
half-life [22]: 24 h
IC50 (Histamine H4 receptor [23]): 4.9 nM
bioavailability [24]: 39%
Activity (HEK-293T [25]): Active
Activity (HEK-293T [26]): Active
Ki (Histamine H4 receptor [27]): 6.17 nM
Ki (Histamine H4 receptor [28]): 12.3 nM
fraction unbound [29]: 0.84
half-life [30]: 7 h
pKi [31]: 7.81
blood plasma ratio [32]: 3
